From publication PMC5780498, “Discovery of novel bacterial topoisomerase I inhibitors by use of in silico docking and in vitro assays” (Scientific Reports, 2018)
Values after ≈ are worked out from the molar mass of the structure shown. “Also recorded” adds a separate entry of the source. Where two headings read alike, the source gives them in different places.

Key:
[1] = biological target: T1, M. tuberculosis topoisomerase I (MtbTopI) (Mycobacterium tuberculosis, UniProt P9WG49); assay: MtbTopI relaxation inhibition assay; type: biochemical; details: 12.5 nM enzyme, supercoiled pBAD/Thio plasmid, 37 °C 30 min, agarose gel
T1 construct: made in house
T1 sequence (P9WG49 whole entry): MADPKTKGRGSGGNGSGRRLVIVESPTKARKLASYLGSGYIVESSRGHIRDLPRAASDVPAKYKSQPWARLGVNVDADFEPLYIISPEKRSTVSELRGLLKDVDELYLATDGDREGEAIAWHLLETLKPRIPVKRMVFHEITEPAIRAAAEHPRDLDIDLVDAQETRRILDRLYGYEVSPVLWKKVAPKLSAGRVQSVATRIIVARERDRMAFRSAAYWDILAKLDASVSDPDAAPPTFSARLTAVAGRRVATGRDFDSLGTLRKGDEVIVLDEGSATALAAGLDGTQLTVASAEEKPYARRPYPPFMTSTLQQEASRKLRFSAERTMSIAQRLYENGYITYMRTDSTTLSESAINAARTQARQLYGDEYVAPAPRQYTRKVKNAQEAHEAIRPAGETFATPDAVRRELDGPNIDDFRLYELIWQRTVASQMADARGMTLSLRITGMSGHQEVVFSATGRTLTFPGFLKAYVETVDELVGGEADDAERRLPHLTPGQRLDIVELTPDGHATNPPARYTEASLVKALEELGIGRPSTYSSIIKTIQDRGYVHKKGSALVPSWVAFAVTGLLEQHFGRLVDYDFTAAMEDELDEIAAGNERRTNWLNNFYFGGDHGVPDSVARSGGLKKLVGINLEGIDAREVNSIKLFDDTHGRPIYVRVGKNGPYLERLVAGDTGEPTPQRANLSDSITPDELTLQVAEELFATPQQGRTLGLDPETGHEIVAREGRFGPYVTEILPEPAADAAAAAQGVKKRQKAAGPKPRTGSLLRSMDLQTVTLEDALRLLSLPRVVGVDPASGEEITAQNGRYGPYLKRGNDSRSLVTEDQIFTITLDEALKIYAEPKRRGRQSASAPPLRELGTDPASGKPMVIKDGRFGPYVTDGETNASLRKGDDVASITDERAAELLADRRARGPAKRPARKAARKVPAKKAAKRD

[2] = biological target: T2, human topoisomerase I (hTOPI) (Homo sapiens, UniProt P11387); assay: Human topoisomerase I relaxation inhibition assay; type: biochemical; details: for IC50: 0.5 U enzyme, supercoiled plasmid, 37 °C 30 min; for Selectivity Score: hTOPI IC50/MtbTopI IC50
T2 construct: purchased TopoGen
T2 sequence (P11387 1-765): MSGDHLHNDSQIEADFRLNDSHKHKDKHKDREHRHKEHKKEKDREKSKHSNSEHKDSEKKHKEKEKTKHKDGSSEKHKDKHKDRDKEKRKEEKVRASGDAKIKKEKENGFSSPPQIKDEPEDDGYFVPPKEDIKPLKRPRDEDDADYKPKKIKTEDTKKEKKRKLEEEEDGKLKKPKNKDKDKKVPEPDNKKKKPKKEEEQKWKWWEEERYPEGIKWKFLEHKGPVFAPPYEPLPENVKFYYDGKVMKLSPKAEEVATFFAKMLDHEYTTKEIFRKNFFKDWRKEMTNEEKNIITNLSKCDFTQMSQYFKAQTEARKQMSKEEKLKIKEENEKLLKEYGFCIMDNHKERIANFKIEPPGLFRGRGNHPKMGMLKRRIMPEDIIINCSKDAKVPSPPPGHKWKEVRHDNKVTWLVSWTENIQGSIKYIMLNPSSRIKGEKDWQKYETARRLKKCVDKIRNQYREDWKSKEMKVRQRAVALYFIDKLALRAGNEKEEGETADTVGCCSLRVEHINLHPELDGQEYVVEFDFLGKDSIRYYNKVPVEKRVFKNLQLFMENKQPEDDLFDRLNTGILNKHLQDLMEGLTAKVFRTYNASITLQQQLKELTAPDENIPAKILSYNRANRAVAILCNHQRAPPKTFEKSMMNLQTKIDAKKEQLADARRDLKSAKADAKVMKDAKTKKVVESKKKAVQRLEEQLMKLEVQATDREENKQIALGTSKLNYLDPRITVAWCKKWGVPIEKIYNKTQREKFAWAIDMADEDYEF
Procedure: Human topoisomerase I assays were carried out in a buffer containing 10 mM Tris-HCl, pH 8.0, 150 mM NaCl, 0.1% BSA, 0.1 mM spermidine, and 5% glycerol. The enzyme (from TopoGen) was diluted in the above buffer and aliquoted into 10 µL samples such that 0.5U was present in each. 0.5 µL of compound at various concentrations was added before the addition of 150 ng of purified pBAD/Thio purified plasmid DNA for a final volume of 20 µL. The samples were incubated for 30 minutes at 37 °C before stopping by the addition of 4 µL of buffer containing 5% SDS, 0.25% bromophenol blue, and 25% glycerol. The samples were analyzed by gel electrophoresis as previously described[23],[38],[39]. The experiments were replicated twice.

[3] = test system: M. smegmatis transformed with cloning vector (MnoI strain); assay: microbe, parasite or virus in culture; type: cell-based, Mycobacterium smegmatis; details: Mycolicibacterium smegmatis
E. coli DNA gyrase = biological target: T3, E. coli DNA gyrase (Escherichia coli, UniProt P0AES4+P0AES6); assay: DNA gyrase supercoiling inhibition assay; type: biochemical; details: for IC50: 2 U enzyme, relaxed plasmid, 37 °C 30 min
T3 construct: purchased New England BioLabs
T3 sequence (P0AES4 whole entry, one chain of several): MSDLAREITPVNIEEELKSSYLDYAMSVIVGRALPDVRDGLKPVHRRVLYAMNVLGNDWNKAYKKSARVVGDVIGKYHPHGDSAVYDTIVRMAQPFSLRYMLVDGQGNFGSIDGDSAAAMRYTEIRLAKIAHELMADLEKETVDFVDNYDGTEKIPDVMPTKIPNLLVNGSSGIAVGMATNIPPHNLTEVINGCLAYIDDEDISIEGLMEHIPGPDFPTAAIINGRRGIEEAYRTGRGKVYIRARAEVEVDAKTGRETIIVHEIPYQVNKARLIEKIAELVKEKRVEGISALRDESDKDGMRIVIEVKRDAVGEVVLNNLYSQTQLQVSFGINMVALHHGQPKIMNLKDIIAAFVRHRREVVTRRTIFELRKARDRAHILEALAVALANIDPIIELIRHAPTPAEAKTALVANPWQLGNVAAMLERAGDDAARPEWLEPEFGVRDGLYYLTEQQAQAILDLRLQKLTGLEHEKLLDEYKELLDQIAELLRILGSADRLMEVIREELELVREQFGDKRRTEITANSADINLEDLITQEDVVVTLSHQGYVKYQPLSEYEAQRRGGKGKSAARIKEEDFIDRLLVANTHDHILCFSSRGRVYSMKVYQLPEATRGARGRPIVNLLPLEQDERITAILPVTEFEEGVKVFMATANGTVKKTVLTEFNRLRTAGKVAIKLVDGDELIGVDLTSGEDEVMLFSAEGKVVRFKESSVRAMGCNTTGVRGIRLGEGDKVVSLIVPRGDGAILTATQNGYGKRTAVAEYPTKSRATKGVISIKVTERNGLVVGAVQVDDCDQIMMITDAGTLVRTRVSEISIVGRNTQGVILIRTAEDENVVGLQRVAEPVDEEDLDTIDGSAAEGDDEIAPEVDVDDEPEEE
Procedure: E. coli DNA gyrase was obtained from New England BioLabs. Two units of the enzyme were added to a reaction buffer provided by the manufacturer (35 mM Tris-HCl, pH 8.0, 4 mM MgCl2, 24 mM KCl, 2 mM DTT, 1.75 mM ATP, 5 mM spermidine, 0.1 mg/mL BSA, and 6.5% glycerol). 0.5 µL of the compounds dissolved in DMSO or the solvent alone were added to the enzyme mixture. 300 ng of relaxed covalently closed plasmid DNA was then added for a final volume of 20 µL. The reactions were incubated for 30 minutes at 37 °C before termination by the addition of 4 µL of the SDS stop buffer. The samples were then loaded into a 1% agarose gel and run at 25 V overnight. The experiments were replicated twice.

E. coli topoisomerase I = E. coli topoisomerase I (Escherichia coli, UniProt P06612); assay: E. coli topoisomerase I relaxation inhibition assay; type: biochemical; details: for Inhibition of E. coli topoisomerase I relaxation activity (in words): Supplementary Fig. S2
Chain of E. coli topoisomerase I (P06612 whole entry): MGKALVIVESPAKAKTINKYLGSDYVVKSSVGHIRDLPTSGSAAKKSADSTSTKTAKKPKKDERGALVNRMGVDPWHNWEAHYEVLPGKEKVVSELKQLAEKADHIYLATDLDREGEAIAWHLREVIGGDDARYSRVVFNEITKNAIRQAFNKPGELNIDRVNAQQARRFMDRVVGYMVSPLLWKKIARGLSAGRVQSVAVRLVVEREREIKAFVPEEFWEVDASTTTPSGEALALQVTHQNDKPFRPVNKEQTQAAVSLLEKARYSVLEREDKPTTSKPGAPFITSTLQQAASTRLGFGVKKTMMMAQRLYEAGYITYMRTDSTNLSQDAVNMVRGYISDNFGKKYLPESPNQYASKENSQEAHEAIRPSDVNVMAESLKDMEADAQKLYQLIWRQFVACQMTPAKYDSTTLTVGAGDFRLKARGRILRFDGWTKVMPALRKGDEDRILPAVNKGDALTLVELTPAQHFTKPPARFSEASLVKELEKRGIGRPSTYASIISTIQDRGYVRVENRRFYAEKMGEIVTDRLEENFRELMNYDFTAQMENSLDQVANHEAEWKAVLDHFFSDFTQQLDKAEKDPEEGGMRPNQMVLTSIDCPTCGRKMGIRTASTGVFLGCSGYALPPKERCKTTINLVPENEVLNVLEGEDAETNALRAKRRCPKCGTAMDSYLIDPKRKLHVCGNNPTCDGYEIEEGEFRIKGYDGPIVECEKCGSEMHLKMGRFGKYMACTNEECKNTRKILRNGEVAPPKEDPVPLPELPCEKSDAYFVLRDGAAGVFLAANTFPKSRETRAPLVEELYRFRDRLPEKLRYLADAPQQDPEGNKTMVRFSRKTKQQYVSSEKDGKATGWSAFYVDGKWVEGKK

human topoisomerase I = biological target: T4, human topoisomerase I (Homo sapiens, UniProt P11387); assay: Gel electrophoresis with ethidium bromide of human topoisomerase I reaction products (nicked DNA); type: biochemical; details: gel electrophoresis in the presence of ethidium bromide
T4 construct: purchased TopoGen
T4 sequence (P11387 1-765): T2 sequence (P11387 1-765)

[4] = 48 h, read-out: MnoI Growth Inhibition (MIC)
[5] = read-out: MnoI Growth Inhibition with TZ (MIC)

**Q.** How did the IC50 [1] turn out when `Cc1c(C(=O)N2CCC(c3nnc(-c4nccc5ccccc45)o3)CC2)oc2ccccc12` [Compound 2] was run?
**A.** 62.5 µM

**Q.** And the IC50 [2]?
**A.** > 250 µM

**Q.** And the “Selectivity Score” value [2]?
**A.** >4

**Q.** What about the MIC [3, 4] of the same compound?
**A.** 188 µM (≈ 82.2 µg/mL)

**Q.** What about the MIC [3, 5] of the same compound?
**A.** 31.3 µM (≈ 13.7 µg/mL)

**Q.** Which IC50 [1] does the source give for `COc1ccc2c(c1)NC1(CCN(C(=O)Cc3c[nH]c4ccccc34)CC1)NS2(=O)=O` [Compound 3] here?
**A.** 62.5 µM

**Q.** And the IC50 [2]?
**A.** > 250 µM

**Q.** And the “Selectivity Score” value [2]?
**A.** >4

**Q.** What about the MIC [3, 4] of the same compound?
**A.** 250 µM (≈ 110 µg/mL)

**Q.** And the MIC [3, 5]?
**A.** 31.3 µM (≈ 13.8 µg/mL)

**Q.** For `Cc1c(C(=O)N2CCC3(CC2)CC(O)(c2ccc(F)cc2)CO3)oc2ccccc12` (centres unmarked) [Compound 4], which IC50 [1] is on record?
**A.** 125 µM

**Q.** What about the IC50 [2] of the same compound?
**A.** > 250 µM

**Q.** What about the “Selectivity Score” value [2] of the same compound?
**A.** >2

**Q.** `O=C(c1ccc2c(c1)OCO2)N1CCC(Cn2nc(-c3ccc(F)cc3)ccc2=O)CC1` [Compound 5] was tested. Which IC50 [1] did it give?
**A.** 250 µM

**Q.** For `O=C(CN1C(=O)C2C3CCC(C3)C2C1=O)N1CCC2(CC1)Nc1ccccc1-n1cccc12` (centres unmarked) [Compound 6], which IC50 [1] is on record?
**A.** 500 µM

**Q.** For `Cc1ccc(CN2C[C@]34C=C[C@H](O3)C(C(=O)N3CCn5cccc5C3)C4C2=O)cc1C` (some centres unmarked) [Compound 7], which IC50 [1] is on record?
**A.** 2 µM

**Q.** And the IC50 [2]?
**A.** > 500 µM

**Q.** And the “Inhibition of E. coli DNA gyrase supercoiling activity (in words)” value (E. coli DNA gyrase; up to 500 µM)?
**A.** no inhibition; also recorded: does not inhibit

**Q.** What about the “Inhibition of E. coli topoisomerase I relaxation activity (in words)” value (E. coli topoisomerase I) of the same compound?
**A.** inhibited

**Q.** What about the IC50 (E. coli topoisomerase I; assay conditions as for MtbTopI) of the same compound?
**A.** 15.6 to 31.3 µM

**Q.** What about the MIC [3, 4] of the same compound?
**A.** > 500 µM

**Q.** And the MIC [3, 5]?
**A.** 500 µM (≈ 209 µg/mL)

**Q.** What does the source list for `Cc1cc2oc(C(=O)N3CCC(c4nc5ccccc5[nH]4)CC3)c(C)c2cc1C` [Compound 8]?
**A.** IC50 [1]: 62.5 µM; IC50 [2]: > 500 µM; IC50 (E. coli DNA gyrase): > 500 µM; Inhibition of E. coli topoisomerase I relaxation activity (in words) (E. coli topoisomerase I): inhibited; MIC [3, 4]: > 500 µM; MIC [3, 5]: 23.4 µM (≈ 9.07 µg/mL)

**Q.** `Cc1ccc2[nH]c(C3CCN(C(=O)c4oc5ccc(C)cc5c4C)CC3)nc2c1` [Compound 9] was tested. Which IC50 [1] did it give?
**A.** 62.5 µM

**Q.** And the IC50 [2]?
**A.** > 500 µM

**Q.** And the IC50 (E. coli DNA gyrase)?
**A.** > 500 µM

**Q.** And the “Inhibition of E. coli topoisomerase I relaxation activity (in words)” value (E. coli topoisomerase I)?
**A.** inhibited

**Q.** And the MIC [3, 4]?
**A.** 125 µM (≈ 48.4 µg/mL)

**Q.** What about the MIC [3, 5] of the same compound?
**A.** 23.4 µM (≈ 9.07 µg/mL)

**Q.** What does the source list for `Cc1ccc2oc(C(=O)N3CCC(O)(c4cccc(C(F)(F)F)c4)CC3)c(C)c2c1` [Compound 10]?
**A.** IC50 [1]: 62.5 µM; IC50 [2]: > 500 µM; IC50 (E. coli DNA gyrase): > 500 µM; MIC [3, 4]: 125 µM (≈ 52.2 µg/mL); MIC [3, 5]: 23.4 µM (≈ 9.77 µg/mL)

**Q.** With `Cc1c(C(=O)N2CCCCC2CCc2ccc(O)cc2)oc2c(F)cccc12` (centres unmarked) [Compound 11] as the compound, how does the IC50 [1] read?
**A.** 62.5 µM

**Q.** What about the IC50 [2] of the same compound?
**A.** 250 µM

**Q.** What about the IC50 (E. coli DNA gyrase) of the same compound?
**A.** > 500 µM

**Q.** What about the MIC [3, 4] of the same compound?
**A.** 500 µM (≈ 191 µg/mL)

**Q.** What about the MIC [3, 5] of the same compound?
**A.** 46.9 µM (≈ 17.9 µg/mL)

**Q.** `Cc1ccc2c(C)c(C(=O)N3CCC4(CC(=O)c5ccccc5O4)C3)oc2c1` (centres unmarked) [Compound 12] was tested. Which IC50 [1] did it give?
**A.** 62.5 µM

**Q.** What about the IC50 [2] of the same compound?
**A.** > 500 µM

**Q.** What about the IC50 (E. coli DNA gyrase) of the same compound?
**A.** > 500 µM

**Q.** And the MIC [3, 4]?
**A.** > 500 µM

**Q.** What about the MIC [3, 5] of the same compound?
**A.** 500 µM (≈ 188 µg/mL)

**Q.** For `CC[C@@]1(O)C(=O)OCc2c1cc1n(c2=O)Cc2cc3ccccc3nc2-1` [camptothecin], which “Formation of nicked DNA by human topoisomerase I” value (human topoisomerase I) is on record?
**A.** increased nicking of DNA by human topoisomerase I significantly
